Read-outs that look alike come from different tables or passages of the source.
What was measured:
[1] = tested on: SMN2 minigene (full length SMN2 minigene mRNA containing SMN2 exon 7); assay: SMN2 minigene mRNA splicing RT-qPCR assay in cultured cells; assay type: cell-based, human; conditions: Homo sapiens, HEK293-H, read-out: EC1.5x for production of full length SMN2 mRNA
Method in brief: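 HEK293H cells stably carrying the SMN2-A minigene treated 24 h at 37° C with compound (DMSO, 200× stock), then lysed. Multiplex RT-qPCR (SMN primers 0.4 μM final; 40 cycles) measures full-length exon 7-containing minigene mRNA, normalized to GAPDH and to vehicle; EC1.5x derived and binned by stars.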

Smn protein = Smn protein assay in cultured cells (SMN HTRF); assay type: cell-based, human; conditions: 48 hours; for EC1.5x (concentration giving 1.5-fold Smn protein increase): SMA Type 1 patient fibroblast cells (GM03813), 7-point concentration curve, SMN HTRF, concentration producing 1.5 times Smn protein vs DMSO vehicle control, read-out: EC1.5x for Smn protein expression; for maximum fold (Fold) increase of Smn protein: SMA patient fibroblast cells, 7-point concentration data, fold increase relative to vehicle control (SMN HTRF)
Method in brief: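 Lysates in RIPA with protease inhibitors are incubated overnight at room temperature with HTRF anti-SMN antibodies. EC1.5x is derived from fold increase in ΔF over vehicle.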

[2] = HEK293H cells stably transfected with SMN2-A minigene, 24 hours, 7-point concentration curve, 1.5-fold relative to vehicle-treated cells

melting point [°C]	SMILES	EC (1.5-fold) [1, 2] [µM]	EC1.5x (concentration giving 1.5-fold Smn protein increase) (Smn protein) [nM]	maximum fold (Fold) increase of Smn protein (Smn protein)	EC (1.5-fold) ([1]; 24 h) [µM]
173 to 176	Cc1cn2cc(-c3cc4ccc(CCCN(C)CCO)cc4oc3=O)nc2c(C)n1 [Compound 880, 3-(6,8-dimethylimidazo[1,2-a]pyrazin-2-yl)-7-{3-[(2-hydroxyethyl)(methyl)amino]propyl}-2H-chromen-2-one]	< 0.1	< 300	**** (fold increase between >1.5 and ≤1.65)	–
234 to 235	Cc1cn2cc(-c3cc4ccc(N5CCCN(C)CC5)cc4oc3=O)nc2cn1 [Compound 493, 7-(4-methyl-1,4-diazepan-1-yl)-3-(6-methylimidazo[1,2-a]pyrazin-2-yl)-2H-chromen-2-one]	< 0.1	< 300	***** (fold increase >1.65)	–
244 to 246	Cc1cn2cc(-c3cc4ccc(N5CC[C@H](N(C)C)C5)cc4oc3=O)nc2c(C)n1 [Compound 691, 7-[(3S)-3-(dimethylamino)pyrrolidin-1-yl]-3-(6,8-dimethylimidazo[1,2-a]pyrazin-2-yl)-2H-chromen-2-one]	< 0.1	< 300	**** (fold increase between >1.5 and ≤1.65)	–
209 to 215	CCN1CC[C@@H](Nc2ccc3cc(-c4cn5cc(C)nc(C)c5n4)c(=O)oc3c2)C1 [Compound 731, 3-(6,8-dimethylimidazo[1,2-a]pyrazin-2-yl)-7-{[(3R)-1-ethylpyrrolidin-3-yl]amino}-2H-chromen-2-one]	< 0.1	–	*** (fold increase between >1.35 and ≤1.5)	–
228 to 231	CN1CCCN(c2ccc3cc(-c4cn5ccsc5n4)c(=O)oc3c2)CC1 [Compound 203, 3-(imidazo[2,1-b][1,3]thiazol-6-yl)-7-(4-methyl-1,4-diazepan-1-yl)-2H-chromen-2-one]	0.1 to 0.3	300 to 1000	**** (fold increase between >1.5 and ≤1.65)	–
235 to 238	Cc1nc(Cl)cn2cc(-c3cc4ccc(N5CCN[C@@H](C)C5)cc4oc3=O)nc12 [Compound 713, 3-(6-chloro-8-methylimidazo[1,2-a]pyrazin-2-yl)-7-[(3S)-3-methylpiperazin-1-yl]-2H-chromen-2-one]	< 0.1	< 300	*** (fold increase between >1.35 and ≤1.5)	–
227 to 229	CC(=O)O.CC(=O)O.COc1nc(C)cn2cc(-c3cc4ccc(N5CCN(C)[C@H](C)C5)cc4oc3=O)nc12 [Compound 759, 7-[(3R)-3,4-dimethylpiperazin-1-yl]-3-(8-methoxy-6-methylimidazo[1,2-a]pyrazin-2-yl)-2H-chromen-2-one acetate (1:2)]	< 0.1	–	*** (fold increase between >1.35 and ≤1.5)	–
205 to 209	Cc1cn2cc(-c3cc4ccc(N5CCN[C@H](C)C5)cc4oc3=O)cc2c(C)n1 [Compound 668, 3-(1,3-dimethylpyrrolo[1,2-a]pyrazin-7-yl)-7-[(3R)-3-methylpiperazin-1-yl]-2H-chromen-2-one]	< 0.1	< 300	***** (fold increase >1.65)	–
162 to 166	Cc1cccn2cc(-c3cc4ccc(N5CCN[C@@H](C)C5)cc4oc3=O)nc12 [Compound 248, 3-(8-methylimidazo[1,2-a]pyridin-2-yl)-7-[(3S)-3-methylpiperazin-1-yl]-2H-chromen-2-one]	0.1 to 0.3	1000 to 3000	** (fold increase between >1.2 and ≤1.35)	–
223 to 225	Cc1cn2cc(-c3cc4c(F)cc(N5CCCN(C)CC5)cc4oc3=O)nc2c(C)n1 [Compound 614, 3-(6,8-dimethylimidazo[1,2-a]pyrazin-2-yl)-5-fluoro-7-(4-methyl-1,4-diazepan-1-yl)-2H-chromen-2-one]	< 0.1	< 300	***** (fold increase >1.65)	–
232 to 234	CCN1CCN(c2cc(F)c3cc(-c4cn5cc(C)nc(C)c5n4)c(=O)oc3c2)CC1 [Compound 746, 3-(6,8-dimethylimidazo[1,2-a]pyrazin-2-yl)-7-(4-ethylpiperazin-1-yl)-5-fluoro-2H-chromen-2-one]	< 0.1	< 300	***** (fold increase >1.65)	–
290 to 300	C[C@@H]1CN(c2cc(F)c3cc(-c4cn5cccc(Cl)c5n4)c(=O)oc3c2)C[C@H](C)N1 [Compound 388, 3-(8-chloroimidazo[1,2-a]pyridin-2-yl)-7-[(3R,5S)-3,5-dimethylpiperazin-1-yl]-5-fluoro-2H-chromen-2-one]	0.3 to 1	–	** (fold increase between >1.2 and ≤1.35)	–
265 to 271	C[C@@H]1CN(c2ccc3cc(-c4cn5cc(Cl)cnc5n4)c(=O)oc3c2)C[C@H](C)N1 [Compound 349, 3-(6-chloroimidazo[1,2-a]pyrimidin-2-yl)-7-[(3R,5S)-3,5-dimethylpiperazin-1-yl]-2H-chromen-2-one]	1 to 3	–	* (maximum fold increase of ≤1.2)	–
266 to 276	C[C@@H]1CN(c2cc(F)c3cc(-c4cn5cccc(Cl)c5n4)c(=O)oc3c2)CCN1 [Compound 390, 3-(8-chloroimidazo[1,2-a]pyridin-2-yl)-5-fluoro-7-[(3R)-3-methylpiperazin-1-yl]-2H-chromen-2-one]	0.1 to 0.3	–	*** (fold increase between >1.35 and ≤1.5)	–
275 to 280	Cc1cn2cc(-c3cc4ccc(N5CCN(C(C)C)CC5)cc4oc3=O)nc2cn1 [Compound 833, 3-(6-methylimidazo[1,2-a]pyrazin-2-yl)-7-[4-(propan-2-yl)piperazin-1-yl]-2H-chromen-2-one]	< 0.1	< 300	***** (fold increase >1.65)	–
251 to 253	Cc1cn2cc(-c3cc4ccc(OCCN(C)C)cc4oc3=O)nc2c(C)n1 [Cpd 876, 7-[2-(dimethylamino)ethoxy]-3-(6,8-dimethylimidazo[1,2-a]pyrazin-2-yl)-2H-chromen-2-one]	< 0.1	< 300	**** (fold increase between >1.5 and ≤1.65)	–
178 to 182	O=c1oc2cc(N3CC4CCC3CN4)ccc2cc1-c1cn2cccc(Cl)c2n1 (stereo not shown) [Compound 527, 3-(8-chloroimidazo[1,2-a]pyridin-2-yl)-7-(2,5-diazabicyclo[2.2.2]oct-2-yl)-2H-chromen-2-one]	0.1 to 0.3	< 300	**** (fold increase between >1.5 and ≤1.65)	–
235 to 238	O=c1oc2cc(N3CCN4CCC[C@H]4C3)ccc2cc1-c1cn2cccc(F)c2n1 [Compound 528, 3-(8-fluoroimidazo[1,2-a]pyridin-2-yl)-7-[(8aS)-hexahydropyrrolo[1,2-a]pyrazin-2(1H)-yl]-2H-chromen-2-one]	1 to 3	–	** (fold increase between >1.2 and ≤1.35)	–
155 to 159	Cc1cn2cc(-c3cc4ccc(CCCNCc5ccncc5)cc4oc3=O)nc2c(C)n1 [Compound 936, 3-(6,8-dimethylimidazo[1,2-a]pyrazin-2-yl)-7-{3-[(pyridin-4-ylmethyl)amino]propyl}-2H-chromen-2-one]	< 0.1	< 300	***** (fold increase >1.65)	–
248 to 252	C[C@@H]1CN(c2ccc3cc(-c4nc5ccccc5s4)c(=O)oc3c2)C[C@H](C)N1 [Compound 24, 3-(1,3-benzothiazol-2-yl)-7-[(3R,5S)-3,5-dimethylpiperazin-1-yl]-2H-chromen-2-one]	1 to 3	–	* (maximum fold increase of ≤1.2)	–
135 to 137	C[C@@H]1CN(c2ccc3cc(-c4ccc5c(c4)OCO5)c(=O)oc3c2)CCN1 [Compound 488, 3-(1,3-benzodioxol-5-yl)-7-[(3R)-3-methylpiperazin-1-yl]-2H-chromen-2-one]	3 to 30	–	* (maximum fold increase of ≤1.2)	–

SMILES	melting point [°C]	EC (1.5-fold) [1, 2] [µM]	EC1.5x (concentration giving 1.5-fold Smn protein increase) (Smn protein) [nM]	maximum fold (Fold) increase of Smn protein (Smn protein)	EC (1.5-fold) ([1]; 24 h) [µM]
O=c1oc2cc(N3CCNCC3)ccc2cc1-c1ccsc1 [Compound 319, 7-(piperazin-1-yl)-3-(thiophen-3-yl)-2H-chromen-2-one]	175 to 177	–	–	** (fold increase between >1.2 and ≤1.35)	1 to 3
O=c1oc2cc(N3CCNCC3)ccc2cc1Nc1ccccc1 [Compound 75, 3-(phenylamino)-7-(piperazin-1-yl)-2H-chromen-2-one]	140 to 143	–	–	* (maximum fold increase of ≤1.2)	3 to 30
